Results from patent US10213407B2, “Compounds and methods for inhibiting production of trimethylamine” (The Procter & Gamble Company, priority 2015, dated 2019).

system: Proteus mirabilis 29906 (Pm) lysate; assay: Inhibition of formation of TMA from choline in Proteus mirabilis lysate (d9-choline to d9-TMA, LC-MS/MS); type: biochemical; conditions: conversion of choline to TMA; Pm lysate 1.5 mg/mL protein, 50 μM d9-choline chloride, 37° C., two hours; read-out: TMA Inhibition (IC50, mol/L)
Method: EXAMPLE 2 Assay for identifying and characterizing compounds that inhibit the formation of TMA from choline.
This example provides an exemplary assay for identifying and characterizing compounds that inhibit the formation of TMA from choline.
Proteus mirabilis 29906 (Pm) strain was grown aerobically overnight in 500 ml of Nutrient Broth media (3 g/L beef extract, 5 g/L Peptone; Difco #234000) at 37° C. with 250 rpm shaking. The biomass was pelleted by centrifugation at 6000×g for 12 minutes at 4° C. The cell pellet was suspended in 240 mL of ice-cold 1× Phosphate Buffered Saline (Ca^2+ and Mg^2+ free). Ninety micrograms of Lysozyme (Sigma #L6876 Lot #SLBG8654V; Sigma-Aldrich Corp., St. Louis, Mo.) was added and incubated with 320 rpm shaking for 30 minutes at 4° C. Lysis was achieved via French press with a 4° C. prechilled 1″ diameter chamber at 1000 psi (high ratio; internal PSI equivalent ˜16000). The lysate was centrifuged at 6,000×g for 12 minutes at 4° C. to pellet extra debris. A protein concentration of the centrifuged lysate supernatant was determined by a BCA Protein Assay Kit (Pierce #23225; Thermo Fisher Scientific Co., Waltham, Mass.) and protein concentration adjusted to 3 mg/ml with 1× Dulbecco's phosphate buffered saline (DPBS). The centrifuged supernatant lysate was aliquoted into 20 mL volumes and stored frozen at −80° C.
Proteus mirabilis 29906 (Pm) lysate was diluted to 1.5 mg/mL protein with 1×DPBS. Choline chloride (CC) (1M stock) was added to reach a final concentration of 2.5 mM choline chloride. The mixture was mixed using a vortex mixer for approximately 15 seconds and incubated at 37° C. for 22 hours. After incubation, 150 μL of CC-treated Pm lysate was dispensed into a deep-well plate (polypropylene, 2 mL volume, Corning Axygen catalogue #P-DW-20-C). Candidate IC50 compounds from TABLE 1 and vehicle control (respective vehicle control of DMSO or water), or control compounds (IC50 control, 8-Quinolinol hemisulfate salt (Sigma Catalog #55100)) were added at a 1:100 dilution (e.g., 1.5 μL per well). The plates were agitated on a plate shaker for 1 minute. d9-choline chloride (1.5 μL of 5 mM) was added to all wells to reach a final d9-choline chloride concentration of 50 μM.
The plates were again agitated on a plate shaker for 1 minute and incubated at 37° C. for two hours. After incubation, 1.5 μL of formic acid was added to each well (final concentration=1% formic acid). The plates were agitated on a plate shaker for 1 minute and placed on ice. Cell lysate samples were spiked with stable isotope labeled internal standard (22.5 μL of 6 μg/mL of 13C3-trimethylamine (13C3-TMA) was added to each sample), then d9-trimethylamine (d9-TMA), trimethylamine (TMA) and 13C3-TMA were isolated from the lysate after protein precipitation as described below. Acetonitrile acidified with 0.1% formic acid, 600 μL, was added to each sample which was then centrifuged (2,100 g for 20 minutes) to pellet the protein and other precipitates. The supernatant was removed and analyzed as described below. The TMA, d9-TMA and 13C3-TMA in the isolated supernatant samples were subjected to gradient High Performance Liquid Chromatography (HPLC) analysis on a Waters Atlantis HILIC Silica column, from Waters Corp., Milford, Mass., (2.1×50 mm, 3 μm particles) with an Atlantis Silica HILIC Sentry guard column, from Waters Corp., Milford, Mass., (100 Å, 3 μm, 2.1 mm×10 mm), 10 mM ammonium formate in water with 0.1% formic acid as mobile phase A and 0.1% formic acid in acetonitrile as mobile phase B. Detection and quantitation was achieved by tandem mass spectrometry operating under multiple reaction monitoring (MRM) MS/MS conditions (m/z 60.1→44.1 for TMA, m/z 69.1→49.1 for d9-TMA, m/z 63.0→46.1 for 13C3-TMA). TMA and d9-TMA calibration standards (STD), prepared in 80/20/0.1% acetonitrile/Water/Formic Acid, were used to construct a regression curve by plotting the response (peak area TMA/peak area 13C3-TMA) versus concentration for each standard. […]

SMILES | IC50 [µM]
CC[N+](CC)(CCCN=C=S)CCOc1ccccc1 [Compound 10, N-(2-Phenoxyethyl)-3-isothiocyanato-N,N-diethylpropan-1-aminium triflate] | 29.6
C[N+](C)(CCN=C=S)CCOCc1ccccc1 [Compound 11, N-(2-Benzyloxyethyl)-2-isothiocyanato-N,N-dimethylethan-1-aminium triflate] | 16.1
CC[N+](CC)(CCCN=C=S)CCOCc1ccccc1 [Compound 12, N-(2-Benzyloxyethyl)-3-isothiocyanato-N,N-diethylpropan-1-aminium triflate] | 29.1
C[N+](C)(CCN=C=S)CCOc1ccccc1 [Compound 13, N-(2-Phenoxyethyl)-2-isothiocyanato-N,N-dimethylethan-1-aminium triflate] | 1.33
C[N+](C)(CCBr)CCN=C=S [Compound 14, N-(2-Bromoethyl)-2-isothiocyanato-N,N-dimethylethan-1-aminium triflate] | 24.9
C[N+](C)(CCN=C=S)CC1CO1 (stereo not drawn) [Compound 15, N-(Oxiranylmethyl)-2-isothiocyanato-N,N-dimethylethan-1-aminium triflate] | 194
CC[N+](CC)(CCCN=C=S)CC1CO1 (stereo not drawn) [Compound 16, N-(Oxiranylmethyl)-3-isothiocyanato-N,N-diethylpropan-1-aminium triflate] | 39.8
COCC[N+](C)(C)CCN=C=S [Compound 17, N-(2-Methoxyethyl)-2-isothiocyanato-N,N-dimethylethan-1-aminium triflate] | 31.6
CC[N+](CC)(CCCN=C=S)CCOC [Compound 18, N-(2-Methoxyethyl)-3-isothiocyanato-N,N-diethylpropan-1-aminium triflate] | 39.8
CCOCC[N+](C)(C)CCN=C=S [Compound 19, N-(2-Ethoxyethyl)-2-isothiocyanato-N,N-dimethylethan-1-aminium triflate] | 63.1
CCOCC[N+](CC)(CC)CCCN=C=S [Compound 20, N-(2-Ethoxyethyl)-3-isothiocyanato-N,N-diethylpropan-1-aminium triflate] | 19.9
COCCC[N+](C)(C)CCN=C=S [Compound 21, N-(3-Methoxypropyl)-2-isothiocyanato-N,N-dimethylethan-1-aminium triflate] | 31.6
CC[N+](CC)(CCCN=C=S)CCCOC [Compound 22] | 31.6
C[N+](C)(CCCl)CCN=C=S [Compound 23, N-(2-Chloroethyl)-2-isothiocyanato-N,N-dimethylethan-1-aminium triflate] | 25.1
C[N+](C)(CCCCl)CCN=C=S [Compound 24, N-(3-Chloropropyl)-2-isothiocyanato-N,N-dimethylethan-1-aminium triflate] | 63.1
CC[N+](CC)(CCCl)CCCN=C=S [Compound 25, N-(2-Chloroethyl)-3-isothiocyanato-N,N-diethylpropan-1-aminium triflate] | 19.9
CC[N+](CC)(CCCCl)CCCN=C=S [Compound 26, N-(3-Chloropropyl)-3-isothiocyanato-N,N-diethylpropan-1-aminium triflate] | 50.1
CC[N+](CC)(CCF)CCCN=C=S [Compound 27, N-(2-Fluoroethyl)-3-isothiocyanato-N,N-diethylpropan-1-aminium triflate] | 31.6

SMILES | IC50 [µM]
S=C=NCC[n+]1ccccc1 [Compound 28, 1-(2-Isothiocyanatoethyl)pyridin-1-ium bromide] | 31.6
Oc1ccc[n+](CCN=C=S)c1 [Compound 29, 1-(2-Isothiocyanatoethyl)-3-hydroxypyridinium bromide] | 1260
OCc1cccc[n+]1CCN=C=S [Compound 30, 1-(2-Isothiocyanatoethyl)-(2-hydroxymethyl)pyridinium triflate] | 25.1
OCc1cccc[n+]1CCCN=C=S [Compound 31, 2-(hydroxymethyl)-1-(3-isothiocyanatopropyl)pyridin-1-ium trifluoromethanesulfonate] | 251
Oc1ccc[n+](CCCN=C=S)c1 [Compound 32, 3-hydroxy-1-(3-isothiocyanatopropyl)pyridin-1-ium trifluoromethanesulfonate] | 1990
OCC[N+]1(CCN=C=S)CCCCC1 [Compound 33, 1-(2-hydroxyethyl)-1-(2-isothiocyanatoethyl)piperidin-1-ium trifluoromethanesulfonate] | 200
C[N+]1(CCN=C=S)CCCCC1CO (stereo not drawn) [Compound 34, 2-(hydroxymethyl)-1-(2-isothiocyanatoethyl)-1-methylpiperidin-1-ium trifluoromethanesulfonate] | 316
OCC[N+]1(CCCN=C=S)CCCCC1 [Compound 35, 1-(2-hydroxyethyl)-1-(3-isothiocyanatopropyl)piperidin-1-ium trifluoromethanesulfonate] | 1260
C[N+](C)(CCO)CCCN=C=S [Compound 36, N-(2-hydroxyethyl)-3-isothiocyanato-N,N-dimethylpropan-1-aminium trifluoromethanesulfonate] | 100
C#CC[N+](C)(C)CCN=C=S [Compound 37, N-(2-isothiocyanatoethyl)-N,N-dimethylprop-2-yn-1-aminium bromide] | 1.99
C=C(C[N+](C)(C)CCN=C=S)C(=O)OC [Compound 38, N-(2-isothiocyanatoethyl)-2-(methoxycarbonyl)-N,N-dimethylprop-2-en-1-aminium bromide] | 14.1
C[N+]1(CCN=C=S)CCC(O)CC1 (stereo not drawn) [Compound 39, 4-hydroxy-1-(2-isothiocyanatoethyl)-1-methylpiperidin-1-ium bromide] | 25.9
C[N+]1(CCN=C=S)CCOCC1 [Compound 40, 4-Methyl-4-(2-isothiocyanatoethyl)morpholinium trifluoromethanesulfonate] | 286
C[N+]1(CCN=C=S)CCCCC1 [Compound 41, 1-Methyl-1-(2-isothiocyanatoethyl)piperidium trifluoromethanesulfonate] | 31.7
S=C=NCC[N+]12CCC(CC1)CC2 [Compound 42, 1-(2-Isothiocyanatoethyl)quinuclidinium trifluoromethanesulfonate] | 12.1
C[N+]1(CCCN=C=S)CCOCC1 [Compound 43, 4-Methyl-4-(3-isothiocyanatopropyl)morpholinium trifluoromethanesulfonate] | > 1000
C[N+]1(CCCN=C=S)CCCCC1 [Compound 44, 1-Methyl-1-(3-isothiocyanatopropyl)piperidinium trifluoromethanesulfonate] | > 1000
S=C=NCCC[N+]12CCC(CC1)CC2 [Compound 45, 1-(3-Isothiocyanatopropyl)quinuclidinium trifluoromethanesulfonate] | 115
